One may read the EC50 as the midpoint of the concentration-response curve.

No end group written: not given here.

These results are taken from publication PMC11945486, “TAS1R2/TAS1R3 Single-Nucleotide Polymorphisms Affect Sweet Taste Receptor Activation by Sweeteners: The SWEET Project” (Nutrients, 2025).

This experiment addresses T1, human TAS1R2-A574T/TAS1R3-WT (Homo sapiens, UniProt Q7RTX0+Q8TE23, A574T).
T1 construct: expressed in transfected cells; host or cells: HEK293T-Gα16gust44
T1 sequence (Q8TE23 20-839 A574T): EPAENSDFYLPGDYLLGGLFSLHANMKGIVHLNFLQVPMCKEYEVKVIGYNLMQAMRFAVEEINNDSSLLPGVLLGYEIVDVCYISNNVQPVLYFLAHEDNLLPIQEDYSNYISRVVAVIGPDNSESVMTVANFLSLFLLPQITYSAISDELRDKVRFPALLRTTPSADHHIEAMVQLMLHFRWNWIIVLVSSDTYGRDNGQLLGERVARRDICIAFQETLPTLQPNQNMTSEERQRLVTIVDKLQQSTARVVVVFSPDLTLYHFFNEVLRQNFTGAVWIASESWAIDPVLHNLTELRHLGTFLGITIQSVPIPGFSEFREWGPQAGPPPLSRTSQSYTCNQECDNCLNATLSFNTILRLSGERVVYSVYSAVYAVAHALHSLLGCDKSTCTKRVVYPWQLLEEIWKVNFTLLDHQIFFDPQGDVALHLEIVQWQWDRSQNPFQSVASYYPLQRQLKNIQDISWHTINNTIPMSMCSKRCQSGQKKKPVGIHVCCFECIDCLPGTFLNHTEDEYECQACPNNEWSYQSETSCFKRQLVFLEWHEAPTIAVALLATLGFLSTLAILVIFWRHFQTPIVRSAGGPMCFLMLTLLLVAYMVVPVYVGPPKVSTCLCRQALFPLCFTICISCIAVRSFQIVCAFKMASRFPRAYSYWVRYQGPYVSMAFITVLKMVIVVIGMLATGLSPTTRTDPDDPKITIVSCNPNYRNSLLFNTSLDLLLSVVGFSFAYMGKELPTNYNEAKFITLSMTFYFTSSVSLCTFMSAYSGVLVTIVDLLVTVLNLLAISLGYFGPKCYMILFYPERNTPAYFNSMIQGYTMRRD
T1 sequence (Q7RTX0 21-852): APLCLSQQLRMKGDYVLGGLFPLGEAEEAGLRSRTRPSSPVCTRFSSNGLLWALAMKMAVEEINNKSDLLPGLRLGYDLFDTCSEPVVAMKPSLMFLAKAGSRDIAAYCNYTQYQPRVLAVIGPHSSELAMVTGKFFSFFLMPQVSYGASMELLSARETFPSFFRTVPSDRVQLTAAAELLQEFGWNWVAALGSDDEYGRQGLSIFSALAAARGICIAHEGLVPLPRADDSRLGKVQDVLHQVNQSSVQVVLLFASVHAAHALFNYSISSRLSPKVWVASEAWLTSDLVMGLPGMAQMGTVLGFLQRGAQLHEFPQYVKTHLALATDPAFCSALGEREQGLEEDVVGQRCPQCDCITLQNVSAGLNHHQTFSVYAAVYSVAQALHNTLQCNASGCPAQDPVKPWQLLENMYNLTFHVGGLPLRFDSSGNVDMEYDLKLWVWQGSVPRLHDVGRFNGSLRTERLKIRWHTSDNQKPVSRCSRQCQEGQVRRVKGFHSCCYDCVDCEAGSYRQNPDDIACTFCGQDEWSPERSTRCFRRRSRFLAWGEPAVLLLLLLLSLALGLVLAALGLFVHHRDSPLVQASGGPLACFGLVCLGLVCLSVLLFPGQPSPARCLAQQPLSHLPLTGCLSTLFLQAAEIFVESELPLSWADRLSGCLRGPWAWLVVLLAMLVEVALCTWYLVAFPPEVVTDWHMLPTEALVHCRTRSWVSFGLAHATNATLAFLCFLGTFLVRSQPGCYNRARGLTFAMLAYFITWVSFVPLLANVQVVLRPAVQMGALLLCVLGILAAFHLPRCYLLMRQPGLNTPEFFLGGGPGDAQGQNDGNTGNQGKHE
Description: Calcium mobilisation assay, TAS1R2 variant A574T with TAS1R3-WT. The format is cell-based. The conditions noted are these: for Max ΔF/F0: maximal signal amplitude. The text has this:
The coding sequences for TAS1R2 and TAS1R3 were commercially synthesised, and the human codon was optimised for expression in human cells. The coding sequences of human TAS1R2 and TAS1R3 were subcloned and inserted into the mammalian expression vectors pcDNA6/myc-HisA and pcDNA4/myc-HisA (Invitrogen; Thermo Fisher Scientific; Illkirch, France) between the EcoRI and NotI restriction sites, generating the plasmids pcDNA6-TAS1R2 and pcDNA4-TAS1R3, respectively. To increase protein expression in mammalian cells, an upstream start codon was used, which was a sequence called MAX, corresponding to the QBI SP163 element also described in pcDNA4-HisMax (Invitrogen; Thermo Fisher Scientific; Illkirch, France). To measure the expression level of the receptor by immunohistochemistry, we used the FLAG sequence ([…]) in the C-terminal position, which encodes the FLAG tag epitope. SNP variants of TAS1R2 and TAS1R3 were constructed based on […], respectively, using site-directed mutagenesis (Genewiz; Leipzig, Germany).
The HEK293T cells were kindly provided by Jay P. Slack (Givaudan Flavors Corporation; Cincinnati, OH, USA). HEK293T cells stably transfected with Gα16gust44 [43, 67] were seeded in poly-D-lysine-coated clear-bottom black 96-well plates (0.35 × 10^5 cells/well) in high-glucose DMEM supplemented with 2 mM GlutaMAX, 10% dialysed foetal bovine serum with penicillin/streptomycin and G418 (400 μg/mL) at 37 °C and 6.3% CO2 in a humidified atmosphere as previously reported. […] As a negative control, HEK293T cells were mock-transfected with the empty expression vector. After a further 24 h of incubation, the HEK293T cells were washed with C1 buffer (130 mM NaCl, 5 mM KCl, 10 mM HEPES pH 7.4 and 2 mM CaCl2). The 96-well plates containing the cells were then stimulated with sweet-tasting compounds. […] Different concentration ranges were tested depending on the sweet compound injected. The Ca^2+ changes were expressed as fractional changes in fluorescent light intensity: ΔF/F = (F − F0)/F0, where F was the fluorescent light intensity at each point, and F0 was the value of emitted fluorescent light prior to stimulus application. To calculate dose–response relationships, the changes in fluorescence upon stimulus application were averaged, mock-subtracted and baseline-corrected. The dose–response data obtained were adjusted using a 4-parameter logistic equation. The half-maximal effective concentrations (EC50 values) and maximal signal amplitudes were calculated using SigmaPlot software (version 15.0) (Systat Software; San Jose, CA, USA).
For in vitro calcium mobilisation assay performed on hTAS1R2-SNPs, hTAS1R3-SNPs and mTAS1R3-I60T, 6 to 7 concentrations were tested for each sweet compound, plus buffer alone. All concentration–receptor combinations were measured in duplicate, and each experiment was repeated at least 4 times (8 wells/concentration). Results were expressed for each concentration as ΔF/F mean ± SEM and represented as dose–response curves.
(A change in cytosolic calcium serves as a functional read-out for many receptors and channels.)

Turning to `OC[C@H]1O[C@H](O[C@]2(CCl)O[C@H](CCl)[C@@H](O)[C@@H]2O)[C@H](O)[C@@H](O)[C@H]1Cl` [Sucralose], the EC50 was 81 ± 2 µM, the “R1 = Variant EC50/WT EC50” value worked out at 0.9 and the “Max ΔF/F0” value is given as 0.63 ± 0.01.
The corresponding values for `C[C@H](CC[C@@H](O[C@@H]1O[C@H](CO[C@@H]2O[C@H](CO)[C@@H](O)[C@H](O)[C@H]2O)[C@@H](O)[C@H](O)[C@H]1O[C@@H]1O[C@H](CO)[C@@H](O)[C@H](O)[C@H]1O)C(C)(C)O)[C@H]1CC[C@@]2(C)[C@@H]3CC=C4[C@@H](CC[C@H](O[C@@H]5O[C@H](CO[C@@H]6O[C@H](CO)[C@@H](O)[C@H](O)[C@H]6O)[C@@H](O)[C@H](O)[C@H]5O)C4(C)C)[C@]3(C)[C@H](O)C[C@]12C` [Mogroside V, mogroside V] are 16.7 ± 3.1 µM, 1.0 and 1.25 ± 0.08.
The corresponding values for `COC(=O)[C@H](Cc1ccccc1)NC(=O)[C@H](CC(=O)O)NCCC(C)(C)C` [Neotame] are 0.73 ± 0.03 µM, 0.9 and 0.60 ± 0.01.
Take “brazzein (QDKCKKVYENYPVSKCQLANQCNYDCKLDKHARSGECFYDEKRNLQCICDYCEY; ends and bridges not checked; cysteine pairing not given here; UniProt P56552 1-54, looked up) [sweet-tasting protein obtained by recombinant production using the yeast Pichia pastoris]”: the “R1 = Variant EC50/WT EC50” value was 1.2 and the “Max ΔF/F0” value turned out to be 1.14 ± 0.01.
In the case of `C=C(C)[C@@H]1CC=C(/C=N/O)CC1` [Perillartine, perillartine], the concentration giving a half-maximal response (EC50) came to 19.2 ± 0.9 µM, the “R1 = Variant EC50/WT EC50” value is listed as 1.1 and the “Max ΔF/F0” value came to 1.39 ± 0.02.
The corresponding values for `CC1=CC(=O)NS(=O)(=O)O1` [Acesulfame K, acesulfame K] are 658 ± 65 µM, 0.9 and 0.34 ± 0.02.
The corresponding values for `C=C1C[C@@]23CC[C@H]4[C@@](C)(CCC[C@@]4(C)C(=O)O[C@@H]4O[C@H](CO)[C@@H](O)[C@H](O[C@@H]5O[C@H](CO)[C@@H](O)[C@H](O)[C@H]5O)[C@H]4O[C@@H]4O[C@H](CO)[C@@H](O)[C@H](O)[C@H]4O)[C@@H]2CC[C@]1(O[C@@H]1O[C@H](CO)[C@@H](O)[C@H](O[C@@H]2O[C@H](CO)[C@@H](O)[C@H](O)[C@H]2O)[C@H]1O[C@@H]1O[C@H](CO)[C@@H](O)[C@H](O)[C@H]1O)C3` [Rebaudioside M, rebaudioside M] are 16.3 ± 0.5 µM, 1.0 and 1.08 ± 0.01.
As to `O=S(=O)(O)NC1CCCCC1` [Cyclamate, cyclamate], the EC50 stood at 1780 ± 49 µM.
As for `COc1ccc(CCC(=O)c2c(O)cc(O[C@@H]3O[C@H](CO)[C@@H](O)[C@H](O)[C@H]3O[C@@H]3O[C@@H](C)[C@H](O)[C@@H](O)[C@H]3O)cc2O)cc1O` [NHDC, neohesperidin dihydrochalcone], the EC50 was 73.4 ± 8.4 µM, the “R1 = Variant EC50/WT EC50” value came out at 1.0 and the “Max ΔF/F0” value was 0.81 ± 0.03.
In the case of thaumatin, the “R1 = Variant EC50/WT EC50” value came to 1.9 and the “Max ΔF/F0” value is recorded as 1.37 ± 0.02.

B1: thaumatin (protein)
chain: ATFEIVNRCSYTVWAAASKGDAALDAGGRQLNSGESWTINVEPGTKGGKIWARTDCYFDDSGSGICKTGDCGGLLRCKRFGRPPTTLAEFSLNQYGKDYIDISNIKGFNVPMDFSPTTRGCRGVRCAADIVGQCPAKLKAPGGGCNDACTVFQTSEYCCTTGKCGPTEYSRFFKRLCPDAFSYVLDKPTTVTCPGSSNYRVTFCPTA
modifications: Eight disulfides
notes: sweet-tasting plant protein, E957
B1: the EC50 came out at 14.1 ± 0.3 µM.
